Laboratory results taken from patent US20080146592A1, “Method of Treating Preeclampsia Employing Metolazone” (priority 2003, published 2008).

System: “preeclamptic” rat model
Experiment: "preeclamptic" rat model (pregnant rats, saline drinking water plus weekly DOCA)
Format: in vivo, Sprague-Dawley rats
Protocol: Metolazone is a diuretic with unique properties. At low doses, it reduces blood pressure in our “preeclamptic” rat model. Female Sprague-Dawley rats were mated and the “preeclamptic” syndrome was induced by replacing their drinking water with saline and injecting them with DOCA at weekly intervals. When hypertension had occurred (3-5 days of gestation), the animals were randomly divided into two groups: 1) Group I (PE+M), n=7, was given metolazone in a daily dose of 0.04 mg/kg body weight daily for 12-14 day by gavage and 2) Group II (PE) n=5, was simply given the vehicle (saline).

[1] = rat model of preeclampsia, metolazone treatment

How did the “Urinary sodium excretion after M” value (PE+M rats, 0.04 mg/kg daily by gavage, 16.2+/−6 mM/24 h prior to M administration, p>0.05) turn out when Cc1ccccc1N1C(=O)c2cc(S(N)(=O)=O)c(Cl)cc2NC1C (stereo not shown) [Metolazone, metolazone] was run?
The value was 15.3 mM/24 h.

And the “Growth retardation (animals affected)” value (PE+M rats, seen in four of the five vehicle PE animals)?
The value was “none”.

What about the “Weight gain versus vehicle group” value (PE+M versus PE rats) of the same molecule?
Its value is “similar”.

And the “Blood pressure in the PE+M animals after treatment (mean)” value (metolazone 0.04 mg/kg body weight daily for 12-14 day by gavage, before treatment 119+/−3 mm Hg, vehicle PE rats 121+/−7 mm Hg, p<0.01)?
Its value is 100+/−16 mm/Hg.

What about the “Effect on intrauterine growth restriction” value [1] of the same molecule?
The value was “beneficial effect”.

And the “Influence on pup number and development” value [1]?
The value was “positive influence”.

And the Volume contraction (rat model of preeclampsia, non-diuretic dose)?
Its Volume contraction is “without causing volume contraction”.
